Test results as given in ChEMBL document CHEMBL5634115, “Exploring novel anticancer pyrazole benzenesulfonamides featuring tail approach strategy as carbonic anhydrase inhibitors” (Eur J Med Chem, 2023).

What was measured:
Carbonic anhydrase 9 = Carbonic anhydrase 9 (Homo sapiens, UniProt Q16790)
Description: Binding affinity to human CA9 assessed as inhibition constant

Carbonic anhydrase 12 [1] = target: T1, Carbonic anhydrase 12 (Homo sapiens, UniProt O43570)
Description: Inhibition of human carbonic anhydrase 12 preincubated for 15 mins followed by substrate addition and measured after 30 mins by spectrophotometric method

Carbonic anhydrase 12 [2] = target: T1, Carbonic anhydrase 12; remark: listed apart in the source
Description: Binding affinity to human CA12 assessed as inhibition constant

T1 sequence (O43570 whole entry): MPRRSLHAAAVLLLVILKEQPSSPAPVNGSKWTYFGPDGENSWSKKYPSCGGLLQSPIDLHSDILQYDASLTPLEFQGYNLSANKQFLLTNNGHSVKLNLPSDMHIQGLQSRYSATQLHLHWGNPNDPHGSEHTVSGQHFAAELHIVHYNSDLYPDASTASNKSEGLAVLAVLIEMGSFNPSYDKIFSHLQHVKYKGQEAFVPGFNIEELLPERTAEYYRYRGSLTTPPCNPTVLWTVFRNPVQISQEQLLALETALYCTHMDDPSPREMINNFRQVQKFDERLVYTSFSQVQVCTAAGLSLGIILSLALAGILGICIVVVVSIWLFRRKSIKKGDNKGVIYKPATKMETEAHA

Ki (Carbonic anhydrase 9) | IC50 (Carbonic anhydrase 12 [1]) | Ki (Carbonic anhydrase 12 [2]) | SMILES
176 nM |  |  | CCOC(=O)c1cc(-c2ccc(C)cc2)n(-c2ccc(S(N)(=O)=O)cc2)n1
20.5 nM |  |  | CCOC(=O)c1cc(-c2ccc([N+](=O)[O-])cc2)n(-c2ccc(S(N)(=O)=O)cc2)n1
225 nM |  |  | CCOC(=O)c1cc(-c2ccccc2)n(-c2ccc(S(N)(=O)=O)cc2)n1
 | 144 nM |  | Cc1ccc(-c2nn(-c3ccc(S(N)(=O)=O)cc3)cc2/C=N/Nc2ccc(S(N)(=O)=O)cc2)cc1
18.9 nM |  | 32.7 nM | NS(=O)(=O)c1ccc(C(=O)N/N=C/c2ccccc2O)cc1
7.79 nM |  | 7.78 nM | CCn1c(-c2cc(C(=O)O)[nH]n2)cc2ccccc21
